Measurements taken from PMC9840614, “A gain-of-function TPC2 variant R210C increases affinity to PI(3,5)P2 and causes lysosome acidification and hypopigmentation” (Nature Communications, 2023).

Columns and labels:
Assay type in all cases: cell-based
[1] = target: T1, Two Pore Channel 2 (TPC2), R210C (Homo sapiens, UniProt Q8NHX9, R210C); assay: whole-endolysosome patch clamp, HEK293 vacuoles, […]
T1 construct: gene TPCN2; EGFP-TPC2 R210C

[2] = target: T2, Two Pore Channel 2 (TPC2), R210A (Homo sapiens, UniProt Q8NHX9, R210A); assay: channel activation EC50 (n = […], data not shown in figures)
T2 construct: gene TPCN2

[3] = target: T3, Two Pore Channel 2 (TPC2), R210C (Homo sapiens, UniProt Q8NHX9, L11A/L12A/R210C); assay: inside-out patch clamp, HEK293, concentration response
T3 construct: gene TPCN2; EGFP-tagged plasma membrane-targeted TPC2 L11A/L12A

[4] = target: T4, Two Pore Channel 2 (TPC2) (Homo sapiens, UniProt Q8NHX9, L11A/L12A); assay: as above
T4 construct: gene TPCN2; EGFP-tagged plasma membrane-targeted TPC2 L11A/L12A
T4 sequence (Q8NHX9 whole entry L11A/L12A): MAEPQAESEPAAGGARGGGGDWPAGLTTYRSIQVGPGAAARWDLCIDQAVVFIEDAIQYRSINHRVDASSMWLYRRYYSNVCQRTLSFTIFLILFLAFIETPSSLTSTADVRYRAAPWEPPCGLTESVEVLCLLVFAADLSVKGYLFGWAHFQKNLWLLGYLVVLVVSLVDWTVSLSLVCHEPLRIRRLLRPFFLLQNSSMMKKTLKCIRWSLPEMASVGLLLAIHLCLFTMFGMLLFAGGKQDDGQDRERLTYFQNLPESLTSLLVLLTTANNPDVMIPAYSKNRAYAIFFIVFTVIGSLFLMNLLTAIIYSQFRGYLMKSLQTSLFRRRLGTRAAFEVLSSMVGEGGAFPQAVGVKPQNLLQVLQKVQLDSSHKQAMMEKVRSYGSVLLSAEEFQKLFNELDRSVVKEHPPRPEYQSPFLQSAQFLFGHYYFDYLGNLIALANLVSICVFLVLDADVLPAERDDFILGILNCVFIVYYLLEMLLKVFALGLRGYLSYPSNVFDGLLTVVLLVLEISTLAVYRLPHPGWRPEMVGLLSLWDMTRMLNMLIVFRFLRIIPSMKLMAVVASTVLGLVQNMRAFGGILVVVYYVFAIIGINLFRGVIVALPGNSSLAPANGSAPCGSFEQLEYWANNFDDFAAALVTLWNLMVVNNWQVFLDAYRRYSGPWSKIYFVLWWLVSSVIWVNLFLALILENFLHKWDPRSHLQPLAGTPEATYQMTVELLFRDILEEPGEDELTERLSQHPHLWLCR

T1 sequence (Q8NHX9 whole entry R210C): as the sequence (Q8NHX9 whole entry L11A/L12A) above, with A11L, A12L, R210C counted along it
T3 sequence (Q8NHX9 whole entry L11A/L12A/R210C): as the sequence (Q8NHX9 whole entry L11A/L12A) above, with R210C counted along it
T2 sequence (Q8NHX9 whole entry R210A): as the sequence (Q8NHX9 whole entry L11A/L12A) above, with A11L, A12L, R210A counted along it

Structure (SMILES)	whole-endolysosome patch clamp, HEK293 vacuoles, 100 nM [1]	EC50 [2] [nM]	EC50 [3] [nM]	EC50 [4] [nM]
COc1ccc([C@H]2N[C@H](C(=O)O)Cc3c2[nH]c2ccccc32)cc1CN1CCN(c2ccccc2F)CC1 [Ned-19]	Ned-19 inhibited the R210C currents at both potentials with fast kinetics			
CCCCCCCC(=O)OC[C@H](COP(=O)(O)O[C@@H]1[C@H](O)[C@H](OP(=O)(O)O)[C@@H](O)[C@H](OP(=O)(O)O)[C@H]1O)OC(=O)CCCCCCC [PI(3,5)P2-diC8]		19.4 ± 0.74	2.27 ± 0.25	209 ± 19.2
